In ChEMBL document CHEMBL5465560, “Selectivity Literature for EUbOPEN Chemogenomic Library” (2024):

Tests used:
[1] = target: Ephrin type-A receptor 2 (Homo sapiens) (UniProt P29317); conditions: at 10 µM
[2] = target: Tyrosine-protein kinase Fer (Homo sapiens) (UniProt P16591); assay: Selectivity interaction (KinomeScan (DiscoverX)) EUB0000229b FER; conditions: at 10 µM
[3] = target: Serine/threonine-protein kinase PAK 1 (Homo sapiens) (UniProt Q13153); assay: Selectivity interaction (KinomeScan (DiscoverX)) EUB0000229b PAK1; conditions: at 10 µM
[4] = target: Cyclin-dependent kinase 2 (Homo sapiens, UniProt P24941); assay: Selectivity interaction (KinomeScan (DiscoverX)) EUB0000092b CDK2; conditions: at 10 µM
[5] = target: Dual specificity protein kinase CLK1 (Homo sapiens, UniProt P49759); assay: Selectivity interaction (KinomeScan (DiscoverX)) EUB0001550a CLK1; conditions: at 1 µM
[6] = target: Serine/threonine-protein kinase 25 (Homo sapiens) (UniProt O00506); assay: Selectivity interaction (KinomeScan (DiscoverX)) EUB0000655a STK25; conditions: at 10 µM
[7] = target: T1, Muscle, skeletal receptor tyrosine-protein kinase (Homo sapiens) (UniProt O15146); assay: Selectivity interaction (KinomeScan (DiscoverX)) EUB0000666a MUSK; conditions: at 10 µM
T1 sequence (whole entry): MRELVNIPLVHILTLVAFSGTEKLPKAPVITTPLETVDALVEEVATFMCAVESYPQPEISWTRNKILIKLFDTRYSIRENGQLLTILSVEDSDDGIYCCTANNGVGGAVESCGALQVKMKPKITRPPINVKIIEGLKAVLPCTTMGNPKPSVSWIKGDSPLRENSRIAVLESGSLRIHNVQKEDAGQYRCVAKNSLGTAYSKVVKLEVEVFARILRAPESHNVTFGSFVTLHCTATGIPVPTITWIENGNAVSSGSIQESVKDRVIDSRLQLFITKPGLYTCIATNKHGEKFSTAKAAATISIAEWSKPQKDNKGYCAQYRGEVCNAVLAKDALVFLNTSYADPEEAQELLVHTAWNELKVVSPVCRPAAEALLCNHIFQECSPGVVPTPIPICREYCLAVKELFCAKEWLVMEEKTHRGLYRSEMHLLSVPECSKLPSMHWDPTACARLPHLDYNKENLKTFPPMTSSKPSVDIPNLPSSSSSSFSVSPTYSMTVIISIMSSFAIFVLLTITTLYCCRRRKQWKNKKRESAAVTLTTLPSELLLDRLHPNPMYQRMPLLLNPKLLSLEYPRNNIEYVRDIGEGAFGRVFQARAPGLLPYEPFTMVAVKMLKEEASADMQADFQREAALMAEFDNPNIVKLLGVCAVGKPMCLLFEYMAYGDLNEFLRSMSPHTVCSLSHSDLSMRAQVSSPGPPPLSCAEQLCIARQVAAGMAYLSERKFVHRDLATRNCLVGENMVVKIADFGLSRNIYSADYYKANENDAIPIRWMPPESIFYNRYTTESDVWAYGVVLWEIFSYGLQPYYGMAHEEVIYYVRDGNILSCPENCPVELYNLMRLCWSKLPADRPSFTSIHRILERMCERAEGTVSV

[8] = target: Macrophage colony-stimulating factor 1 receptor (Homo sapiens) (UniProt P07333); assay: Selectivity interaction (Millipore kinase profiler) EUB0000124b CSF1R; conditions: at 10 µM
[9] = target: Serine/threonine-protein kinase MRCK beta (Homo sapiens) (UniProt Q9Y5S2); assay: Selectivity interaction (Kinase panel (Z-LYTE Assay)) EUB0001632a CDC42BPB; conditions: at 10 µM
[10] = target: Mitogen-activated protein kinase kinase kinase 10 (Homo sapiens) (UniProt Q02779); assay: Selectivity interaction (Kinase panel (Invitrogen)) EUB0000639a MAP3K10; conditions: at 200 nM
[11] = target: Non-receptor tyrosine-protein kinase TYK2 (Homo sapiens, UniProt P29597); assay: Selectivity interaction (ActivX KiNativ screen (kinase selectivity in THP-1 cell lysates)) EUB0000639a TYK2; format: subcellular; conditions: lysate
[12] = target: Wee1-like protein kinase (Homo sapiens) (UniProt P30291); assay: Selectivity interaction (ActivX KiNativ screen (kinase selectivity in THP-1 cell lysates)) EUB0000639a WEE1; format: subcellular; conditions: lysate
[13] = target: Mitogen-activated protein kinase 8 (Homo sapiens, UniProt P45983); assay: Selectivity interaction (KinomeScan (DiscoverX)) EUB0000607a MAPK8; conditions: at 10 µM
[14] = target: Activated CDC42 kinase 1 (Homo sapiens, UniProt Q07912); assay: Selectivity interaction (KinomeScan (DiscoverX)) EUB0001049a TNK2; conditions: at 1 µM
[15] = target: Serine/threonine-protein kinase MRCK beta (Homo sapiens) (UniProt Q9Y5S2); assay: Selectivity interaction (KinomeScan (DiscoverX)) EUB0000695a CDC42BPB; conditions: at 100 nM
[16] = target: Vascular endothelial growth factor receptor 1 (Homo sapiens) (UniProt P17948); assay: Selectivity interaction (KinomeScan (DiscoverX)) EUB0000695a FLT1; conditions: at 100 nM
[17] = target: Receptor-type tyrosine-protein kinase FLT3 (Homo sapiens) (UniProt P36888); assay: Selectivity interaction (KinomeScan (DiscoverX)) EUB0000695a FLT3; conditions: at 100 nM
[18] = target: LIM domain kinase 1 (Homo sapiens) (UniProt P53667); assay: Selectivity interaction (KinomeScan (DiscoverX)) EUB0000695a LIMK1; conditions: at 100 nM
[19] = target: Leukocyte tyrosine kinase receptor (Homo sapiens, UniProt P29376); assay: Selectivity interaction (KinomeScan (DiscoverX)) EUB0000595a LTK; conditions: at 10 µM
[20] = target: Mitogen-activated protein kinase 14 (Homo sapiens, UniProt Q16539); assay: Selectivity interaction (KinomeScan (DiscoverX)) EUB0000595a MAPK14; conditions: at 10 µM
[21] = target: Mitogen-activated protein kinase 6 (Homo sapiens) (UniProt Q16659); assay: Selectivity interaction (KinomeScan (DiscoverX)) EUB0000595a MAPK6; conditions: at 10 µM
[22] = target: Cyclin-dependent kinase 8 (Homo sapiens, UniProt P49336); conditions: at 10 µM
[23] = target: Vascular endothelial growth factor receptor 2 (Homo sapiens, UniProt P35968); assay: Selectivity interaction (Kinase panel (Eurofins)) EUB0001564a KDR; conditions: at 1 µM
[24] = target: Insulin receptor-related protein (Homo sapiens) (UniProt P14616); assay: Selectivity interaction (Ambit KINOMEscan and KiNATiv profiling in Jurkat cells) EUB0000090b INSRR; format: cell-based; conditions: at 1 µM
[25] = target: Polycomb protein SUZ12 (Homo sapiens) (UniProt Q15022); conditions: at 1 µM
[26] = target: Dual specificity mitogen-activated protein kinase kinase 1 (Homo sapiens, UniProt Q02750); assay: Selectivity interaction (ActivX KiNativ screen (ex vivo kinase selectivity in human PBMCs)) EUB0001619a MAP2K1; format: cell-based; conditions: PBMC, at 1 µM
[27] = target: Serine/threonine-protein kinase 38-like (Homo sapiens) (UniProt Q9Y2H1); assay: Selectivity interaction (KinomeScan (DiscoverX)) EUB0001619a STK38L; conditions: at 1 µM

Sequence of Wee1-like protein kinase (Homo sapiens) (P30291 whole entry, looked up): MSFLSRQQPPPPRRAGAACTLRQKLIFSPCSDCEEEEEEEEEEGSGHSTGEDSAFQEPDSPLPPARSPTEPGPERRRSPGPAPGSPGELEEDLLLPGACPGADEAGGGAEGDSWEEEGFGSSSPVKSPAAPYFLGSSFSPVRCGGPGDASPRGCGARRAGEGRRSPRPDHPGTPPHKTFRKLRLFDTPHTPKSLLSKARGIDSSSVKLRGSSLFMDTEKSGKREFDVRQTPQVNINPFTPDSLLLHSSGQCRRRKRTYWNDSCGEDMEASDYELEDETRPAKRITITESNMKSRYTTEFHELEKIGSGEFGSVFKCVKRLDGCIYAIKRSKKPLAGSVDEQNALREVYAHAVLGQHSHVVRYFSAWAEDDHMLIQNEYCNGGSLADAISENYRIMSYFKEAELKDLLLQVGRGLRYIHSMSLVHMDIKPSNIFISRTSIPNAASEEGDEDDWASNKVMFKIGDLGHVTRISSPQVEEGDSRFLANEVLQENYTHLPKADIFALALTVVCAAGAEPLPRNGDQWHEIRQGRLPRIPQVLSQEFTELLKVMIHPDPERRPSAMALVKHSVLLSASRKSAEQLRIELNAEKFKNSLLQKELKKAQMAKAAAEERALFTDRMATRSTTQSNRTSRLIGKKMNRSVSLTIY
Sequence of Non-receptor tyrosine-protein kinase TYK2 (P29597 whole entry): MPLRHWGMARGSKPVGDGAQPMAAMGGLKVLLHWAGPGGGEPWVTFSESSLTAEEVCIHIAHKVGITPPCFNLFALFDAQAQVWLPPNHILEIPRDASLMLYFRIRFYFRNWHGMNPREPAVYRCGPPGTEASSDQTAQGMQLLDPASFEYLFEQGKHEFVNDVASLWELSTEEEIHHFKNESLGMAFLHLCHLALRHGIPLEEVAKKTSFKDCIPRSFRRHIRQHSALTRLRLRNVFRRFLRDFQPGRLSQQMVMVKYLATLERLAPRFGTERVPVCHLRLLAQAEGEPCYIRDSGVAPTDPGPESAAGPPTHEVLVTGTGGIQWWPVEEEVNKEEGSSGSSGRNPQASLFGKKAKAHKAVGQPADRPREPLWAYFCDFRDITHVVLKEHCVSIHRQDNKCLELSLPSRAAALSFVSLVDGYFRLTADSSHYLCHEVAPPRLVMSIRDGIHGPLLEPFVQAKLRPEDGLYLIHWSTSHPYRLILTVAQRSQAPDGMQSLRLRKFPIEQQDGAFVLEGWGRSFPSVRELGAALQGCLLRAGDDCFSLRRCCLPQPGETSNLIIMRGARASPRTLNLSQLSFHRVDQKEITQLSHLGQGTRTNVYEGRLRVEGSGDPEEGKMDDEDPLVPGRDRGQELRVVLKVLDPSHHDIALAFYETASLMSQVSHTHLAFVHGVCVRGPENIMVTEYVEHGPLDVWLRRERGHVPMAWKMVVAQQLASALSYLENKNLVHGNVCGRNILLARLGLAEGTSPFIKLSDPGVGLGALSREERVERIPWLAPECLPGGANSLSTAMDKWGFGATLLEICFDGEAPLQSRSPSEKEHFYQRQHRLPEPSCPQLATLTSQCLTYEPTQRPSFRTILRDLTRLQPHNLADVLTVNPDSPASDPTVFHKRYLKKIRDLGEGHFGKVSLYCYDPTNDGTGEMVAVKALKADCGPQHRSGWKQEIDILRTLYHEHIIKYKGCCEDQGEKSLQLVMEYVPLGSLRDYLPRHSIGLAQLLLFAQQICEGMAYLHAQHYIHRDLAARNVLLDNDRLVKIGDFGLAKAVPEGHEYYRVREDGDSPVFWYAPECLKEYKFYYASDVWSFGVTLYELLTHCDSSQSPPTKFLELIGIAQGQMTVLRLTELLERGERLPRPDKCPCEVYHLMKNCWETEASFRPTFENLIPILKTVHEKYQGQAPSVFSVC
Sequence of Serine/threonine-protein kinase MRCK beta (Homo sapiens) (Q9Y5S2 whole entry): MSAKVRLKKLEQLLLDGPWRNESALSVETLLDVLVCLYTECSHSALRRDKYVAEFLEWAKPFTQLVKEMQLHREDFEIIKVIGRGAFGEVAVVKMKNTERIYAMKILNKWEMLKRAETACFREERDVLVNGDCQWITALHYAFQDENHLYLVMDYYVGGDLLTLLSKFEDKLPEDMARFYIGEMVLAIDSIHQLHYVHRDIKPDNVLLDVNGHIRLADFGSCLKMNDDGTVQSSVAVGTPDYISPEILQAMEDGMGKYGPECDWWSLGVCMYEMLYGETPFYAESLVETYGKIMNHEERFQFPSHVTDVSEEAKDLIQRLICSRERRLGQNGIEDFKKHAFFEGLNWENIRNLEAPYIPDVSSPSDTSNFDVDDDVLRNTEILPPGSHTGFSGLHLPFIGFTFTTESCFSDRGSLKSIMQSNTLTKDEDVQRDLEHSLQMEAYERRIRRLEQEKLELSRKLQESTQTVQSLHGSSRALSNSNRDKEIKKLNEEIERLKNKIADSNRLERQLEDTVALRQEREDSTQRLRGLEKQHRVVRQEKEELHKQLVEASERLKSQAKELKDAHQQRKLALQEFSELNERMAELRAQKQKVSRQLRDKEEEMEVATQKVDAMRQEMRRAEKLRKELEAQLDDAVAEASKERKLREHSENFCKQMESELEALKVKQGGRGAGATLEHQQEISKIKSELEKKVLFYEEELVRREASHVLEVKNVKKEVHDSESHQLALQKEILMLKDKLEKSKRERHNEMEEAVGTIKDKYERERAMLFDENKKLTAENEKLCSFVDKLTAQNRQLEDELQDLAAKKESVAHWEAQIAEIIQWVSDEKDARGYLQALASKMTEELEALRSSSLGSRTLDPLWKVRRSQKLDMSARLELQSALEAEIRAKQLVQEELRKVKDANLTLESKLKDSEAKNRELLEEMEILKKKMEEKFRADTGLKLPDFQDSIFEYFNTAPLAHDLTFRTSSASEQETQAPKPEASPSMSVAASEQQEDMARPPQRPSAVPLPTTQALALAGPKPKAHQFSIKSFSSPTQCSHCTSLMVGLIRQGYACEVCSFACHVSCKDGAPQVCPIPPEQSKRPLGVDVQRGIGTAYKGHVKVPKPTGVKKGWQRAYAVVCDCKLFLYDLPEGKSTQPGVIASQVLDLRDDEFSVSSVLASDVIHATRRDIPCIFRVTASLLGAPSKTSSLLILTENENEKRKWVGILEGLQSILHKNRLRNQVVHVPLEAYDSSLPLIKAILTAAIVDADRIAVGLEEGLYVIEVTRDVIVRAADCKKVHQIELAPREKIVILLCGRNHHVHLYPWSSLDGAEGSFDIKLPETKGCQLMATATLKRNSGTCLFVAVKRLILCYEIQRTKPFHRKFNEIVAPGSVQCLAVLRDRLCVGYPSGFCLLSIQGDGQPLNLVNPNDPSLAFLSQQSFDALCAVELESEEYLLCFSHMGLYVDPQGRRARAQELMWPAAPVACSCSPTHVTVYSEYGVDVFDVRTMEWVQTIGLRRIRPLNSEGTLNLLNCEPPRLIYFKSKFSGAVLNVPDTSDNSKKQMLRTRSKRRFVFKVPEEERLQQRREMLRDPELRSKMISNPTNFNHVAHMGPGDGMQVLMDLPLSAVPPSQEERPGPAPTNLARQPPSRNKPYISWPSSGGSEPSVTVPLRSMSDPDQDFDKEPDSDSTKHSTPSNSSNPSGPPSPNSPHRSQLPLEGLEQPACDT
Sequence of Dual specificity protein kinase CLK1 (P49759 whole entry, looked up): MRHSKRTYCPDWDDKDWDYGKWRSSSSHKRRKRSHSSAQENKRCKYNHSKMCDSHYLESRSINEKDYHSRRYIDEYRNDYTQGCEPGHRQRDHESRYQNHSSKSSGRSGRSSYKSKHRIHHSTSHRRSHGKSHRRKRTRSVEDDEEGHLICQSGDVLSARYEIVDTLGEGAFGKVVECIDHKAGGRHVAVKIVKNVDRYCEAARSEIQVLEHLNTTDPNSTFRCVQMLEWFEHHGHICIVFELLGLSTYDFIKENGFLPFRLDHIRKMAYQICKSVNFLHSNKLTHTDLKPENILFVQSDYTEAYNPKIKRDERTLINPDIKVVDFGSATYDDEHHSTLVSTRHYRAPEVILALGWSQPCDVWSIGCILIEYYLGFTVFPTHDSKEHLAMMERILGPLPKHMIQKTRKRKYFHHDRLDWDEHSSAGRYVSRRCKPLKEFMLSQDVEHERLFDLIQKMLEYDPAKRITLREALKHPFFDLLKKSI
Sequence of Mitogen-activated protein kinase 8 (P45983 whole entry): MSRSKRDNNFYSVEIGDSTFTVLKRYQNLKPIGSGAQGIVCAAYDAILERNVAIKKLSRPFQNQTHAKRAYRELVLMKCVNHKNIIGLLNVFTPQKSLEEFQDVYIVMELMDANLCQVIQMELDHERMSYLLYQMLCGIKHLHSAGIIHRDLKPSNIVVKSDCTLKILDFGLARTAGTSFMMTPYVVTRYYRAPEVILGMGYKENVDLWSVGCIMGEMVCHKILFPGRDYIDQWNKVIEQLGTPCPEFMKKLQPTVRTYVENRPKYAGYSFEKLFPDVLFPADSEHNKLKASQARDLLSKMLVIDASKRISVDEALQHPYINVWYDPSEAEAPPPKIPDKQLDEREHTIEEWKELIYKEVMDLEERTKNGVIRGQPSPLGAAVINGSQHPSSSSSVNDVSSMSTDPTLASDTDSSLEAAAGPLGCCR
Sequence of Cyclin-dependent kinase 8 (P49336 whole entry): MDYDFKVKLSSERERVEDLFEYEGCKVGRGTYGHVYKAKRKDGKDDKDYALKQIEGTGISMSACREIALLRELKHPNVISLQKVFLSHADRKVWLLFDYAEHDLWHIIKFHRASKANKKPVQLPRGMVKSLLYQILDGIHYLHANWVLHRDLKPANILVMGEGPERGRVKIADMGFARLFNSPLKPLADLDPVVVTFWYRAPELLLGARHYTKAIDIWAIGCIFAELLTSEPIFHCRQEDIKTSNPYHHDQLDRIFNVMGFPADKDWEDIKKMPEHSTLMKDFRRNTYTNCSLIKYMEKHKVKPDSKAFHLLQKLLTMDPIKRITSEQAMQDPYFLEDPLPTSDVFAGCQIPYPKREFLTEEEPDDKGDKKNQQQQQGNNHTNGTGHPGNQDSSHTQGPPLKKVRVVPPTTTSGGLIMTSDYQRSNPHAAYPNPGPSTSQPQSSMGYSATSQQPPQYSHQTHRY

`CCN(CC)CCCCNc1ncc2cc(-c3cc(OC)cc(OC)c3)c(NC(=O)NC(C)(C)C)nc2n1` gave a % of control [1] of 100%.
For `COc1cc(N(C)c2ccnc3ccc(C(F)(F)F)cc23)cc(OC)c1OC`, the % binding [2] was 95% and the % binding [3] was 89%.
With `CCC(=O)N1CCN(c2ccc(-n3c(=O)ccc4cnc5ccc(-c6cnc7ccccc7c6)cc5c43)cc2C(F)(F)F)CC1` the % of control [4] was 6.2%.
`CN(C)CC#Cc1ccc2[nH]c3c(c2c1)-c1nc(N)ncc1CCC3` was tested, and the % of control [5] was 30%.
Work on `CN(C)CCOc1ccc(-c2nc(-c3ccncc3)c(-c3ccc4c(c3)CC/C4=N\O)[nH]2)cc1` yielded a % of control [6] of 100%.
With `O=C(NOC[C@H](O)CO)c1ccc(F)c(F)c1Nc1ccc(I)cc1F` the % of control [7] was 68%.
`CC(=O)Nc1cccc(-n2c(=O)n(C3CC3)c(=O)c3c(Nc4ccc(I)cc4F)n(C)c(=O)c(C)c32)c1` showed a % of control [8] of 128%.
With `Cn1cc(-n2cnc3c(NCc4nc5cc(Cl)c(Cl)cc5[nH]4)nc(N4CCOCC4)nc32)cn1` the % of control [9] was 3.7%.
With `CC[C@@H]1[C@H](F)C(=O)N[C@@H]1COc1nccc2cc(C(N)=O)c(OC)cc12` [ZIMLOVISERTIB] the % of inhibition [10] was -1.18%, the % of inhibition ([11]; at 0.01 µM) was 1.5% and the % of inhibition ([11]; at 0.04 µM) was 4%. It also gave a % of inhibition ([11]; at 0.2 µM) of 2.3%, a % of inhibition ([11]; at 1 µM) of 12.6% and a % of inhibition ([11]; at 5 µM) of 19.4%. For the same compound, the % of inhibition ([12]; at 0.01 µM) was 25.6%, the % of inhibition ([12]; at 0.04 µM) was -1.5% and the % of inhibition ([12]; at 0.2 µM) was 3.2%. For the same compound, the % of inhibition ([12]; at 1 µM) was -5.7% and the % of inhibition ([12]; at 5 µM) was 35.6%.
`CNC(=O)Nc1ccc(-c2nc(N3CC4CCC(C3)O4)c3cnn(C4CCC5(CC4)OCCO5)c3n2)cc1` showed a % of control [13] of 91%.
In the case of `COc1cc(Nc2nc(C)cc(-c3cnn4nc(OC)ccc34)n2)cc(C(F)(F)F)c1`, the % of control [14] is reported as 77%.
Compound `Cc1cc(F)c(C(=O)Nc2cccc(-c3nncn3C(C)C)n2)cc1-n1cnc(C2CC2)c1` has a % of control [15] of 100%, a % of control [16] of 100% and a % of control [17] of 100%. The % of control [18] was 99%.
Compound `COCC(=O)NC/C=C/c1ccc2ncnc(Nc3ccc(Oc4ccc(C)nc4)c(C)c3)c2c1` [CP-724714] has a % of control [19] of 88%, a % of control [20] of 100% and a % of control [21] of 100%. For the same compound, the % of control [22] was 3%.
With `CC[C@@H](Nc1c(C#N)c(-c2ccc(-c3cccc(C)c3F)cc2)nc2cnccc12)C(=O)O` [BAY-091] the % of inhibition [23] was 50.1%.
`CN(C)C/C=C/C(=O)Nc1ccc(C(=O)N2CCCC(Nc3ncc(Cl)c(-c4c[nH]c5ccccc45)n3)C2)cc1` (stereo not given) was tested, and the % of control [24] was 100%.
Work on `CNCCN1CCC(c2cc(CN(C)C(=O)c3cccc(Oc4ccccc4)c3)ccn2)CC1` yielded a % activity [25] of over 90%.
Work on `N#Cc1cccc(-c2c[nH]c3ncnc(N4CCOCC4)c23)c1` yielded a % of inhibition [26] of 6% and a % of control [27] of 100%.
